# Data taken from patent US20110034526A1, “Benzimidazole Compounds” (Wyeth LLC, priority 2007, published 2011).
# Key:
# human LXRα = target: T1, human LXRα (Homo sapiens, UniProt Q13133); test: Ligand-binding test procedure for human LXRα (3H T0901317 tracer, flash plates); conditions: biotinylated hLXRα, tracer 3H T0901317
# T1 construct: biotin (biotinylated); made in house; host or cells: E. coli (crude extract)
# T1 sequence (Q13133 1-447): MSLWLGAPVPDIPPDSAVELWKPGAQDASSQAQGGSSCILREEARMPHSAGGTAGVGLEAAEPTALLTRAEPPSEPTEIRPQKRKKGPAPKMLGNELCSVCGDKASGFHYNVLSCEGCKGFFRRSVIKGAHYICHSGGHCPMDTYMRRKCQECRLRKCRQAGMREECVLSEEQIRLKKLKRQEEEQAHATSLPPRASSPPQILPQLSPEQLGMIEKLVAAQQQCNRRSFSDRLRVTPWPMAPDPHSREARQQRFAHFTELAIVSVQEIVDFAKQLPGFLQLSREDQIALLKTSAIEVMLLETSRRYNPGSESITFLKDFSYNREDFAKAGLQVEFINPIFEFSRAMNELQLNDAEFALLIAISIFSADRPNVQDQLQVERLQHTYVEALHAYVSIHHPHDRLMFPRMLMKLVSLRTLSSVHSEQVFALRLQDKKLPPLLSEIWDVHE
# Experimental: Receptor source: E. coli extract from cells expressing biotinylated hLXRcc. Extract was made in a similar buffer as above, but with 50 mM TRIS.
# Washed streptavidin and coated flash plates with wash buffer. Diluted receptor extract to give Bmax ˜4000 cpm and add to the wells. Wrapped the plates in aluminum foil and stored them at +4° C. over night.
# (§1) Made a dilution series in DMSO of the test ligands. Made a 5 nM solution of the radioactive tracer in buffer. Mixed 250 μl diluted tracer with 5 μl of the test ligand from each concentration of the dilution series. Washed the receptor-coated flash plates. Added 200 μl per well of the ligand/radiolabel mixture to the receptor-coated flash plates. Wrapped the plates in aluminum foil and incubate at +4° C. over night.
# Aspirated wells, and wash the flashed plates. Sealed the plate. Measured the remaining radioactivity in the plate.
# human LXRβ = target: T2, human LXRβ (Homo sapiens, UniProt P55055); test: Ligand-binding test procedure for human LXRβ (3H T0901317 tracer, flash plates)
# T2 construct: biotin (biotinylated); made in house; host or cells: E. coli (crude extract)
# T2 sequence (P55055 1-460): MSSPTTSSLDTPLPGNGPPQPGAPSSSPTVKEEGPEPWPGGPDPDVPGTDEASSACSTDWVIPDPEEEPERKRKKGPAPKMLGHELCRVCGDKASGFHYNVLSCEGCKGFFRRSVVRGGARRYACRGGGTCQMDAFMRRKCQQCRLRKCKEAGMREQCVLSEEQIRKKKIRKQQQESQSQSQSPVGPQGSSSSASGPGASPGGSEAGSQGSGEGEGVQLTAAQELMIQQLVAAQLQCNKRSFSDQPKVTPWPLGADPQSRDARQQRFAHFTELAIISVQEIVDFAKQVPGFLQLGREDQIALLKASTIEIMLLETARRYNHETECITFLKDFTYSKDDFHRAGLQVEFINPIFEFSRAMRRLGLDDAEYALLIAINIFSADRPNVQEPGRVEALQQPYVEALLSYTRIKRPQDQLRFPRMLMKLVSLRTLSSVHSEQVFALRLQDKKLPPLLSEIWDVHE
# Experimental: Receptor source: E. coli extracted from cells expressing biotinylated hLXRβ. Extract was made in a similar buffer as above, but with 50 mM TRIS.
# Washed streptavidin and coated flash plates with wash buffer. Diluted receptor extract to give Bmax ˜4000 cpm and add to the wells. Wrapped the plates in aluminum foil and stored them at +4° C. overnight.
# as §1
# Aspirated wells, and washed the flashed plates. Sealed the plate. Measured the remaining radioactivity in the plate.
IC50 (human LXRα),IC50 (human LXRβ),SMILES
4.5 µM,0.278 µM,"CS(=O)(=O)c1cccc(Oc2ccc(-n3c(C(F)(F)F)nc4c(C(F)(F)F)cccc43)cc2)c1 [Example 70, 1-{4-[3-(methylsulfonyl)phenoxy]phenyl}-2,4-bis(trifluoromethyl)-1H-benzimidazole]"
12 µM,1.31 µM,"Cc1cc(Oc2ccc(S(C)(=O)=O)cc2)ccc1-n1c(C)nc2c(C(F)(F)F)cccc21 [Example 100, 2-methyl-1-{2-methyl-4-[4-(methylsulfonyl)phenoxy]phenyl}-4-(trifluoromethyl)-1H-benzimidazole]"
4.83 µM,0.405 µM,"Cc1cc(Oc2cc(F)cc(S(C)(=O)=O)c2)ccc1-n1c(C)nc2c(C(F)(F)F)cccc21 [Example 101, 1-{4-[3-fluoro-5-(methylsulfonyl)phenoxy]-2-methylphenyl}-2-methyl-4-(trifluoromethyl)-1H-benzimidazole]"
1.96 µM,0.304 µM,"Cc1nc2c(C(F)(F)F)cccc2n1-c1ccc(Oc2cccc(S(C)(=O)=O)c2)cc1Cl [Example 102, 1-{2-chloro-4-[3-(methylsulfonyl)phenoxy]phenyl}-2-methyl-4-(trifluoromethyl)-1H-benzimidazole]"
0.014 µM,0.0037 µM,"CCCS(=O)(=O)c1cccc(Oc2cccc(-n3c(C)nc4c(Cl)cccc43)c2)c1 [Example 43, 4-chloro-2-methyl-1-{3-[3-(propylsulfonyl)phenoxy]phenyl}-1H-benzimidazole]"
3.99 µM,1.23 µM,"CS(=O)(=O)c1cc(F)cc(Oc2ccc(-n3cnc4c(C(F)(F)F)cccc43)c(Cl)c2)c1 [Example 106, 1-{2-chloro-4-[3-fluoro-5-(methylsulfonyl)phenoxy]phenyl}-4-(trifluoromethyl)-1H-benzimidazole]"
15.1 µM,1.92 µM,"CCc1nc2c(C(F)(F)F)cccc2n1-c1ccc(Oc2ccc(C#N)c(S(C)(=O)=O)c2)cc1 [Example 88, 4-{4-[2-ethyl-4-(trifluoromethyl)-1H-benzimidazol-1-yl]phenoxy}-2-(methylsulfonyl)benzonitrile]"
> 1 µM,> 1 µM,"CS(=O)(=O)c1cccc(COc2ccc(-n3c(C(F)(F)F)nc4c(C(F)(F)F)cccc43)cc2)c1 [Example 86, 1-(4-{[3-(methylsulfonyl)benzyl]oxy}phenyl)-2,4-bis(trifluoromethyl)-1H-benzimidazole]"
0.0084 µM,0.0017 µM,"Cc1nc2c(C(F)(F)F)cccc2n1-c1ccc(Oc2cccc(S(C)(=O)=O)c2)cc1 [Example 64, 2-methyl-1-{4-[3-(methylsulfonyl)phenoxy]phenyl}-4-(trifluoromethyl)-1H-benzimidazole]"
> 1 µM,> 1 µM,"Cc1nc2c(C(F)(F)F)cccc2n1-c1cccc(Oc2ccccc2S(C)(=O)=O)c1 [Example 12, 2-methyl-1-{3-[2-(methylsulfonyl)phenoxy]phenyl}-4-(trifluoromethyl)-1H-benzimidazole]"
5.07 µM,1.89 µM,"CCc1nc2c(C(F)(F)F)cccc2n1-c1ccc(OCc2cccc(S(C)(=O)=O)c2)cc1 [Example 85, 2-ethyl-1-(4-{[3-(methylsulfonyl)benzyl]oxy}phenyl)-4-(trifluoromethyl)-1H-benzimidazole]"
> 1 µM,1.23 µM,"CCc1nc2c(C(F)(F)F)cccc2n1-c1ccc(Oc2cccc(S(=O)(=O)CC)c2)cc1 [Example 68, 2-ethyl-1-{4-[3-(ethylsulfonyl)phenoxy]phenyl}-4-(trifluoromethyl)-1H-benzimidazole]"
2 µM,0.432 µM,"CCS(=O)(=O)c1cc(F)cc(Oc2ccc(Cl)c(-n3c(C)nc4c(Cl)cccc43)c2)c1 [Example 59, 4-chloro-1-{2-chloro-5-[3-(ethylsulfonyl)-5-fluorophenoxy]phenyl}-2-methyl-1H-benzimidazole]"
0.812 µM,0.065 µM,"CCS(=O)(=O)c1ccc(Oc2ccc(Cl)c(-n3c(C)nc4c(Cl)cccc43)c2)cc1 [Example 62, 4-chloro-1-{2-chloro-5-[4-(ethylsulfonyl)phenoxy]phenyl}-2-methyl-1H-benzimidazole]"
4.7 µM,0.512 µM,"CS(=O)(=O)c1cc(F)cc(Oc2ccc(-n3c(C(F)(F)F)nc4c(C(F)(F)F)cccc43)cc2)c1 [Example 72, 1-{4-[3-fluoro-5-(methylsulfonyl)phenoxy]phenyl}-2,4-bis(trifluoromethyl)-1H-benzimidazole]"
0.036 µM,0.0036 µM,"Cc1nc2c(Cl)cccc2n1-c1cccc(Oc2cc(Cl)cc(S(C)(=O)=O)c2)c1 [Example 46, 4-chloro-1-{3-[3-chloro-5-(methylsulfonyl)phenoxy]phenyl}-2-methyl-1H-benzimidazole]"
0.258 µM,0.02 µM,Cc1nc2c(Cl)cccc2n1-c1cccc(Oc2cccc(S(=O)(=O)CCC(C)C)c2)c1 [Example 53]
1.37 µM,0.092 µM,"CC(C)S(=O)(=O)c1cccc(Oc2cccc(-n3c(C(F)(F)F)nc4c(C(F)(F)F)cccc43)c2)c1 [Example 78, 1-{3-[3-(isopropylsulfonyl)phenoxy]phenyl}-2,4-bis(trifluoromethyl)-1H-benzimidazole]"
0.031 µM,0.0066 µM,"CCS(=O)(=O)c1cc(F)cc(Oc2cccc(-n3c(C)nc4c(Cl)cccc43)c2)c1 [Example 45, 4-chloro-1-{3-[3-(ethylsulfonyl)-5-fluorophenoxy]phenyl}-2-methyl-1H-benzimidazole]"
1.5 µM,0.11 µM,"CS(=O)(=O)c1cccc(COc2ccc(Cl)c(-n3cnc4c(C(F)(F)F)cccc43)c2)c1 [Example 84, 1-(2-chloro-5-{[3-(methylsulfonyl)benzyl]oxy}phenyl)-4-(trifluoromethyl)-1H-benzimidazole]"
5.2 µM,0.581 µM,"Cc1cc(Oc2ccc(S(C)(=O)=O)cc2)ccc1-n1cnc2c(C(F)(F)F)cccc21 [Example 98, 1-{2-methyl-4-[4-(methylsulfonyl)phenoxy]phenyl}-4-(trifluoromethyl)-1H-benzimidazole]"
6.11 µM,0.634 µM,"CCS(=O)(=O)c1cccc(Oc2ccc(-n3cnc4c(C(F)(F)F)cccc43)c(C)c2)c1 [Example 91, 1-{4-[3-(ethylsulfonyl)phenoxy]-2-methylphenyl}-4-(trifluoromethyl)-1H-benzimidazole]"
2.1 µM,0.122 µM,CCS(=O)(=O)c1cccc(Oc2ccc(-n3c(C)nc4c(C(F)(F)F)cccc43)c(C)c2)c1 [Example 94]
16 µM,2.62 µM,"Cc1cc(Oc2cc(F)cc(S(C)(=O)=O)c2)ccc1-n1cnc2c(C(F)(F)F)cccc21 [Example 96, 1-{4-[3-fluoro-5-(methylsulfonyl)phenoxy]-2-methylphenyl}-4-(trifluoromethyl)-1H-benzimidazole]"
0.646 µM,0.1 µM,"Cc1nc2c(Cl)cccc2n1-c1cccc(Oc2cc(S(C)(=O)=O)ccc2Br)c1 [Example 51, 1-{3-[2-bromo-5-(methylsulfonyl)phenoxy]phenyl}-4-chloro-2-methyl-1H-benzimidazole]"
> 1 µM,> 1 µM,"Cc1nc2c(C(F)(F)F)cccc2n1-c1ccc(OCc2cccc(S(C)(=O)=O)c2)cc1 [Example 87, 2-methyl-1(4-{[3-(methylsulfonyl)benzyl]oxy}phenyl)-4-(trifluoromethyl)-1H-benzimidazole]"
2.67 µM,0.235 µM,"Cc1nc2c(C(F)(F)F)cccc2n1-c1ccc(Oc2cc(F)cc(S(C)(=O)=O)c2)cc1Cl [Example 103, 1-{2-chloro-4-[3-fluoro-5-(methylsulfonyl)phenoxy]phenyl}-2-methyl-4-(trifluoromethyl)-1H-benzimidazole]"
3 µM,0.357 µM,"Cc1nc2c(Cl)cccc2n1-c1cccc(Oc2ccc(S(C)(=O)=O)cc2F)c1 [Example 52, 4-chloro-1-{3-[2-fluoro-4-(methylsulfonyl)phenoxy]phenyl}-2-methyl-1H-benzimidazole]"
